In patent publication US20240317706A1, “COMPOUNDS THAT MEDIATE PROTEIN DEGRADATION AND METHODS OF USE THEREOF” (Monte Rosa Therapeutics, Inc., priority 2021, published 2024):

Assays:
CDK2 = target: T1, CDK2 (Homo sapiens, UniProt P24941); assay: HiBiT assay (CDK2 degradation); assay type: cell-based; details: HEK293 clonal line with CRISPR KI HiBiT tag on CDK2, 24 hours, HiBiT Lysis Reagent
T1 construct: HEK293 clonal lines with CRISPR KI HiBiT tag on CDK2 proteins; host or cells: HEK293 clonal line, CRISPR knock-in HiBiT-CDK2, stably expressing LgBiT
Procedure: HEK293 clonal lines with CRISPR KI HiBiT tag on CDK2 proteins and stably expressing LgBiT protein were obtained from Promega (Madison, WI). Cells were plated at 5000 cells per well using Multiflo (BioTek) in 384-well white solid bottom plates (Corning, 3570BC) in 25 ul volume in DMEM media (DMEM, high glucose, HEPES, no phenol red (ThermoFisher Scientific, 21063029)) containing 10% FBS (Corning, 35-075-CV), 1% Penicillin/Streptomycin (ThermoFisher Scientific, 15140-122). Cells were incubated for 16 hours at 37° C., 5% CO2. 75 nL of a compound at 30 μM were dosed into the plate using an Echo® 650 liquid handler (Labcyte). Cells were incubated at 37° C., 5% CO2 for 24 hours. 5 ul of HiBiT Lysis Reagent (Promega, N3030) is added using Combi Multidrop (ThermoFisher Scientific), plates are incubated for 15′ at 37° C., 5% CO2 and then signal was read on a Pherastar FSX using “LUM plus” optic module.
Analysis was performed in Scinamic (Scinamic, Cambridge, MA). Luminescence response (R) was calculated by the formula: response=100*(S−N)/(P−N) where S is the signal of the well, N and P the mean negative and positive control values respectively of the same plate. The luminescence response was then fitted in Scinamic using a 3-parameter agonist logistic fit (hillslope=1, EC50>0, top/bottom unconstrained).

CRBN-DDB1 = CRBN-DDB1 (Homo sapiens, UniProt Q96SW2); assay: Compound binding to CRBN by HTRF assay; details: CRBN-DDB1 2.5 nM, Cy5-Thalidomide 100 nM, 30 min; Ki from geometric mean IC50 by Cheng-Prustoff transformation
How it was run: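 HTRF displacement of Cy5-thalidomide probe (100 nM) from His-CRBN-DDB1 (2.5 nM) with anti-His terbium cryptate, in HEPES/NaCl/TCEP/EDTA/Tween20 buffer. 10-point 1:3 compound series, 30 min at ambient temperature; signal normalised to DMSO and lenalidomide controls, IC50 fitted and Ki derived by Cheng-Prusoff.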

CRBN-DDB1, sequence (Q96SW2 whole entry): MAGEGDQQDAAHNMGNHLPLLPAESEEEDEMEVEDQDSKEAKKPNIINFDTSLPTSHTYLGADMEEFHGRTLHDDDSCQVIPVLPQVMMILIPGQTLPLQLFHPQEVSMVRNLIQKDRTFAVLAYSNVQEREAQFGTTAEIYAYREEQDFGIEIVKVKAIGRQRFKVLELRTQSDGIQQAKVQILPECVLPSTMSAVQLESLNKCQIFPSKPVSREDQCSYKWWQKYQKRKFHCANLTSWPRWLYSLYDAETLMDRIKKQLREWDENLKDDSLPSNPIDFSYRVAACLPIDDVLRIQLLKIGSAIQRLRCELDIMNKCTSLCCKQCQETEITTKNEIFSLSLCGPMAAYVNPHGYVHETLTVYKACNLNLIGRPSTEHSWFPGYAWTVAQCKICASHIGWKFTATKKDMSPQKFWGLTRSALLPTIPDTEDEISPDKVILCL
CRBN-DDB1, sequence (Q16531 whole entry partner): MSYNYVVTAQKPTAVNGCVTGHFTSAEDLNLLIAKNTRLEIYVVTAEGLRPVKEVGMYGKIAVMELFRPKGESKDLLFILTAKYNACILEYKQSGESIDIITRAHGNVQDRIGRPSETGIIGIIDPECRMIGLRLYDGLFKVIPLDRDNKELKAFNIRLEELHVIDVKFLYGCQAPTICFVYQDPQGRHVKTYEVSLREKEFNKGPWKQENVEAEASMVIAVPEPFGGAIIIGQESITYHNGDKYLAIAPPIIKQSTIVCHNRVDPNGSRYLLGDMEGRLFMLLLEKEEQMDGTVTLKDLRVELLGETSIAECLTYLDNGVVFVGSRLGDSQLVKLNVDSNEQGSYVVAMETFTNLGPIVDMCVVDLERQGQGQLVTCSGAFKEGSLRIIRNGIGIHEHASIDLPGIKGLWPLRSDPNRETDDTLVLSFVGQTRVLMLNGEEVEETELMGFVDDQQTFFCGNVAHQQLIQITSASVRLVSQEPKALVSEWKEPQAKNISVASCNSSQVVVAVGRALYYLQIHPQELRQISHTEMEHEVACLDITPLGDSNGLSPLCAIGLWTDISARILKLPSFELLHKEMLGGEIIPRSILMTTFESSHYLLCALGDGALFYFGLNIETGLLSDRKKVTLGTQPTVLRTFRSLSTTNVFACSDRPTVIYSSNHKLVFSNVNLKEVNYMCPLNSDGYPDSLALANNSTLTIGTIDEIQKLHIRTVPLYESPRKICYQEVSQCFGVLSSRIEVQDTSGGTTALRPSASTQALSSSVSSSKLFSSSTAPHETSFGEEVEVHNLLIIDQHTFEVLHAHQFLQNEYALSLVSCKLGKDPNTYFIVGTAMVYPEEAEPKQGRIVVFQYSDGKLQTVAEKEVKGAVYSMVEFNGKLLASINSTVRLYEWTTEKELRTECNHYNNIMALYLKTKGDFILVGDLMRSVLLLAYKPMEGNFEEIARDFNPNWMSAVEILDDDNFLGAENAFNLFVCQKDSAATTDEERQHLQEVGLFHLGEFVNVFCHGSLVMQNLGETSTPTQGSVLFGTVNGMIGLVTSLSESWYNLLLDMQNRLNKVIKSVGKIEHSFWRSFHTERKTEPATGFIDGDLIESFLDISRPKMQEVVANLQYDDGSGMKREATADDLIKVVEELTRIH

| Dmax (CDK2) [%] | Ki (CRBN-DDB1) [nM] | SMILES |
| --- | --- | --- |
| ≤ 10 | 100 to 1000 | C[C@H]1C[C@@H]1COC(=O)NCc1ccc2c(c1)C(=O)N(C1CCC(=O)NC1=O)C2 (stereo partly drawn) [Compound 25, [(1S,2S)-2-methylcyclopropyl]methyl N-{[2-(2,6-dioxopiperidin-3-yl)-3-oxo-2,3-dihydro-1H-isoindol-5-yl]methyl}carbamate] |
| ≤ 10 | 100 to 1000 | CN1CCC(OC(=O)NCc2ccc3c(c2)C(=O)N(C2CCC(=O)NC2=O)C3)C1 (centres unmarked) [Compound 40, 1-methylpyrrolidin-3-yl N-{[2-(2,6-dioxopiperidin-3-yl)-3-oxo-2,3-dihydro-1H-isoindol-5-yl]methyl}carbamate] |
| 10 to 50 | 100 to 1000 | C[C@H]1CCC[C@@H]1OC(=O)NCc1ccc2c(c1)C(=O)N(C1CCC(=O)NC1=O)C2 (stereo partly drawn) [Compound 32, (1S,2S)-2-methylcyclopentyl N-{[2-(2,6-dioxopiperidin-3-yl)-3-oxo-2,3-dihydro-1H-isoindol-5-yl]methyl}carbamate] |
| 10 to 50 | 100 to 1000 | O=C1CCC(N2Cc3ccc(CNC(=O)OCC4CCC(F)(F)C4)cc3C2=O)C(=O)N1 (centres unmarked) [Compound 54, (3,3-difluorocyclopentyl)methyl N-{[2-(2,6-dioxopiperidin-3-yl)-3-oxo-2,3-dihydro-1H-isoindol-5-yl]methyl}carbamate] |
| ≤ 10 | 100 to 1000 | CN1CCC(COC(=O)NCc2ccc3c(c2)C(=O)N(C2CCC(=O)NC2=O)C3)CC1 (centres unmarked) [Compound 34, (1-methylpiperidin-4-yl)methyl N-{[2-(2,6-dioxopiperidin-3-yl)-3-oxo-2,3-dihydro-1H-isoindol-5-yl]methyl}carbamate] |
| 10 to 50 | ≤ 100 | O=C1CCC(N2Cc3ccc(CNC(=O)OCC4CC(F)(F)C4)cc3C2=O)C(=O)N1 (centres unmarked) [Compound 46, (3,3-difluorocyclobutyl)methyl N-{[2-(2,6-dioxopiperidin-3-yl)-3-oxo-2,3-dihydro-1H-isoindol-5-yl]methyl}carbamate] |
| 10 to 50 | 100 to 1000 | O=C1CCC(N2Cc3ccc(CNC(=O)OCCC4CC(F)(F)C4)cc3C2=O)C(=O)N1 (centres unmarked) [Compound 47, 2-(3,3-difluorocyclobutyl)ethyl N-{[2-(2,6-dioxopiperidin-3-yl)-3-oxo-2,3-dihydro-1H-isoindol-5-yl]methyl}carbamate] |
| 10 to 50 | 100 to 1000 | O=C1CCC(N2Cc3ccc(CNC(=O)OCCOC4COC4)cc3C2=O)C(=O)N1 (centres unmarked) [Compound 33, 2-(oxetan-3-yloxy)ethyl N-{[2-(2,6-dioxopiperidin-3-yl)-3-oxo-2,3-dihydro-1H-isoindol-5-yl]methyl}carbamate] |
| ≤ 10 | 100 to 1000 | CN1CCC(COC(=O)NCc2ccc3c(c2)C(=O)N(C2CCC(=O)NC2=O)C3)C1 (centres unmarked) [Compound 39, (1-methylpyrrolidin-3-yl)methyl N-{[2-(2,6-dioxopiperidin-3-yl)-3-oxo-2,3-dihydro-1H-isoindol-5-yl]methyl}carbamate] |
| 50 to 80 | ≤ 100 | CC1(C)CCC(OC(=O)NCc2ccc3c(c2)CN(C2CCC(=O)NC2=O)C3=O)CC1 (centres unmarked) [Compound 15, 4,4-dimethylcyclohexyl N-{[2-(2,6-dioxopiperidin-3-yl)-1-oxo-2,3-dihydro-1H-isoindol-5-yl]methyl}carbamate] |
| ≤ 10 | 100 to 1000 | O=C1CCC(N2Cc3ccc(CNC(=O)OC4CCOC4)cc3C2=O)C(=O)N1 (centres unmarked) [Compound 13, oxolan-3-yl N-{[2-(2,6-dioxopiperidin-3-yl)-3-oxo-2,3-dihydro-1H-isoindol-5-yl]methyl}carbamate] |
| 10 to 50 | 100 to 1000 | O=C1CCC(N2Cc3ccc(CNC(=O)OCC4CC45CCOCC5)cc3C2=O)C(=O)N1 (centres unmarked) [Compound 52, {6-oxaspiro[2.5]octan-1-yl}methyl N-{[2-(2,6-dioxopiperidin-3-yl)-3-oxo-2,3-dihydro-1H-isoindol-5-yl]methyl}carbamate] |
| 50 to 80 | ≤ 100 | O=C1CCC(N2Cc3ccc(CNC(=O)OC[C@@H]4C[C@@H]5C=C[C@H]4CC5)cc3C2=O)C(=O)N1 (mixture of isomers) [Compound 70, rac-[(1R,2R,4R)-bicyclo[2.2.2]oct-5-en-2-yl]methyl N-{[2-(2,6-dioxopiperidin-3-yl)-3-oxo-2,3-dihydro-1H-isoindol-5-yl]methyl}carbamate] |
| 10 to 50 | 100 to 1000 | C[C@H](OC(=O)NCc1ccc2c(c1)C(=O)N(C1CCC(=O)NC1=O)C2)C1CC1 (stereo partly drawn) [Compound 28, (1S)-1-cyclopropylethyl N-{[2-(2,6-dioxopiperidin-3-yl)-3-oxo-2,3-dihydro-1H-isoindol-5-yl]methyl}carbamate] |
| 10 to 50 | ≤ 100 | CC(C)C1CC(COC(=O)NCc2ccc3c(c2)C(=O)N(C2CCC(=O)NC2=O)C3)C1 (centres unmarked) [Compound 20, [3-(propan-2-yl)cyclobutyl]methyl N-{[2-(2,6-dioxopiperidin-3-yl)-3-oxo-2,3-dihydro-1H-isoindol-5-yl]methyl}carbamate] |
| 50 to 80 | 100 to 1000 | CC(C)C1CCC(OC(=O)NCc2ccc3c(c2)C(=O)N(C2CCC(=O)NC2=O)C3)CC1 (centres unmarked) [Compound 89, 4-(propan-2-yl)cyclohexyl N-{[2-(2,6-dioxopiperidin-3-yl)-3-oxo-2,3-dihydro-1H-isoindol-5-yl]methyl}carbamate] |
